Among the test systems are SK-OV-3 ovarian; RXF 393 renal; RPMI-8226 leukemia; KM20L2 colon; SNB-78 CNS; K-562 leukemia; OVCAR-5 ovarian; HT29 colon; M19-MEL melanoma; NCI-H226 lung; DMS 273 small cell lung; DLD-1 colon; LXFL 529 NSCLC.
Common to all, as to assay: NCI-60 cell line screen, 48 h

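48-hour exposure; five concentrations; linearly interpolated endpoints. GI50 = concentration required for 50% inhibition of growth. TGI marks complete inhibition of growth.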

Consider `CC(C(=O)c1ccccc1)C1(O)C(=O)Nc2ccccc21` (stereo not given), for which the TGI with SK-OV-3 ovarian, in the test with RXF 393 renal, in the test with RPMI-8226 leukemia, with KM20L2 colon, with SNB-78 CNS and in the test on K-562 leukemia was > 100 µM in each case. The TGI with OVCAR-5 ovarian, with HT29 colon, in the test on M19-MEL melanoma, with NCI-H226 lung, with DMS 273 small cell lung and in the test with DLD-1 colon was > 100 µM throughout.
`O=S1c2ccccc2N=C(c2ccc(Cl)cc2)CC1c1cccs1` (stereo not given): the TGI was 85.4 µM with SK-OV-3 ovarian; 47.6 µM in the test on RXF 393 renal; 56.2 µM in the test with RPMI-8226 leukemia; 59.6 µM in the test on KM20L2 colon; > 100 µM in the test with SNB-78 CNS; 61 µM with K-562 leukemia. Further, the TGI in the test on OVCAR-5 ovarian was 61.3 µM; with HT29 colon, 49.4 µM; in the test with M19-MEL melanoma, 39 µM; in the test on NCI-H226 lung, > 100 µM; in the test with DMS 273 small cell lung, 28.2 µM; in the test on DLD-1 colon it was 24.9 µM.
`CC(Oc1ccc(OCC2CCCCC2)cc1)C(=O)O` (stereo not given): the TGI with SK-OV-3 ovarian, in the test on SNB-78 CNS, in the test with K-562 leukemia, in the test with LXFL 529 NSCLC, in the test on HT29 colon and with M19-MEL melanoma was > 100 µM throughout. Also, the TGI with NCI-H226 lung, in the test on DMS 273 small cell lung and with DLD-1 colon was > 100 µM throughout.
For `CCCC1C(=O)C(CC)Cc2c(OC)ccc(OC)c21` (stereo not given), the TGI with SK-OV-3 ovarian, with RXF 393 renal, with RPMI-8226 leukemia, in the test with SNB-78 CNS, in the test on K-562 leukemia and in the test with LXFL 529 NSCLC was > 100 µM each time. For the same compound, the TGI with OVCAR-5 ovarian, in the test with HT29 colon, in the test with M19-MEL melanoma, in the test on NCI-H226 lung, in the test with DMS 273 small cell lung and in the test on DLD-1 colon was > 100 µM in each case.
As to `CC1Cc2c(N)nc(N3CCOCC3)nc2NC1=O` (stereo not given), the TGI in the test on SK-OV-3 ovarian, with RXF 393 renal, in the test with RPMI-8226 leukemia, in the test on KM20L2 colon, with K-562 leukemia and in the test with HT29 colon was > 100 µM each time. In addition, the TGI in the test on M19-MEL melanoma, in the test with NCI-H226 lung, with DMS 273 small cell lung and in the test on DLD-1 colon was > 100 µM throughout.
For the compound `CC1=C(/C=C/C2=CC(=C\C(=O)O)/CC(C3=C(C)CCCC3(C)C)C2)C(C)(C)CCC1` (stereo not given), the TGI in the test on SK-OV-3 ovarian turned out to be 27.7 µM; in the test with RXF 393 renal, 22.6 µM; in the test with RPMI-8226 leukemia, 27 µM; with SNB-78 CNS it was 41.2 µM; in the test with LXFL 529 NSCLC it was 26.8 µM; with OVCAR-5 ovarian it was 29.9 µM. For the same compound, the TGI in the test on HT29 colon came to 28.6 µM; in the test with M19-MEL melanoma, 30.6 µM; with NCI-H226 lung, 23.9 µM; with DMS 273 small cell lung, 27.7 µM; with DLD-1 colon, 24.5 µM.
As to `COc1c(B(O)O)cccc1-c1nc2c(F)cc3[nH]ncc3c2c2c1CCCC2`, the GI50 in the test with SK-OV-3 ovarian was 1.5 µM; with RXF 393 renal, 0.0459 µM; with RPMI-8226 leukemia, 0.579 µM; in the test on K-562 leukemia, 2.14 µM; in the test on OVCAR-5 ovarian it was 2.65 µM; with HT29 colon it was 3.07 µM. Moreover, in the test on NCI-H226 lung, the GI50 was 1.44 µM. For the same compound, the TGI in the test on SK-OV-3 ovarian is 36.1 µM; in the test with RXF 393 renal, 1.67 µM; with RPMI-8226 leukemia it was 4.59 µM; in the test on K-562 leukemia, > 100 µM; in the test on OVCAR-5 ovarian, 56.8 µM; in the test on HT29 colon, > 44 µM. Besides, the TGI with NCI-H226 lung worked out at 22.7 µM.
Turning to `O=S(=O)(NCCCNc1cc(-c2cn(-c3ccccc3)nc2-c2cccc(O)c2)ccn1)c1cccc2ccccc12`, the GI50 with SK-OV-3 ovarian is 4.83 µM; in the test on RXF 393 renal, 1.18 µM; in the test on RPMI-8226 leukemia it was 1.85 µM; in the test on K-562 leukemia, 0.614 µM; in the test on OVCAR-5 ovarian, 8.43 µM; in the test with HT29 colon it was 0.508 µM. Further, the GI50 in the test with NCI-H226 lung is 3.4 µM. Also, the TGI in the test with SK-OV-3 ovarian is > 100 µM; in the test with RXF 393 renal, 5.04 µM; in the test with RPMI-8226 leukemia, 7.89 µM; with K-562 leukemia, 4.48 µM; in the test with OVCAR-5 ovarian, > 100 µM; with HT29 colon it was 1.71 µM. Moreover, the TGI in the test on NCI-H226 lung was 45.7 µM.
As to `COc1cc([C@@H]2c3cc4c(cc3[C@H](OC(C)=O)[C@H]3COC(=O)[C@H]23)OCO4)cc(OC)c1OC`, the GI50 with SK-OV-3 ovarian was 0.035 µM; with RXF 393 renal, 0.0691 µM; with RPMI-8226 leukemia, 0.03 µM; with K-562 leukemia, 0.0321 µM; in the test with OVCAR-5 ovarian, 0.0533 µM; in the test with HT29 colon, 0.0335 µM. Also, the GI50 with NCI-H226 lung was 0.0975 µM. For the same compound, the TGI in the test on SK-OV-3 ovarian is > 100 µM; in the test with RXF 393 renal, > 100 µM; in the test on RPMI-8226 leukemia, 3.19 µM; with K-562 leukemia it was > 100 µM; in the test on OVCAR-5 ovarian, > 100 µM; with HT29 colon it was 17.9 µM. Moreover, in the test on NCI-H226 lung, the TGI was > 100 µM.
On to `CC([C@H]1CCC2C3CCC4CC5(CC[C@]4(C)C3CC[C@@]21C)c1ccccc1C(=O)N5C)N(C)C` (stereo not given in full), for which the TGI is > 100 µM in the test on SK-OV-3 ovarian; > 100 µM in the test with RXF 393 renal; > 100 µM with RPMI-8226 leukemia; 92.2 µM in the test on K-562 leukemia; > 100 µM in the test with LXFL 529 NSCLC; > 100 µM with OVCAR-5 ovarian. For the same compound, the TGI in the test on HT29 colon is 68.2 µM; in the test with M19-MEL melanoma it was 78.3 µM; with DMS 273 small cell lung, 75.4 µM; in the test with DLD-1 colon, > 100 µM.
In the case of `CCN(CC)C(=O)CNC(=O)OC(C)(C)C`, the TGI in the test with SK-OV-3 ovarian, in the test with RXF 393 renal, with RPMI-8226 leukemia, in the test on KM20L2 colon, in the test with SNB-78 CNS and in the test with K-562 leukemia was > 100 µM throughout. The TGI in the test on OVCAR-5 ovarian, with HT29 colon, in the test with M19-MEL melanoma, in the test with NCI-H226 lung, in the test on DMS 273 small cell lung and in the test on DLD-1 colon was > 100 µM in each case.

The values are drawn from PubChem BioAssay (NCI).
